Columns and labels:
[1] = molecular target: PP4 holoenzyme (Homo sapiens, UniProt P60510); details: 100 uM DiFMUP; pH 7.4, 30 C; Mg2+ from enzyme buffer
[2] = molecular target: PP6 holoenzyme (Homo sapiens, UniProt O00743); details: 100 uM DiFMUP; pH 7.4, 30 C; Mg2+ from enzyme buffer
Chain of PP6 holoenzyme (O00743 whole entry): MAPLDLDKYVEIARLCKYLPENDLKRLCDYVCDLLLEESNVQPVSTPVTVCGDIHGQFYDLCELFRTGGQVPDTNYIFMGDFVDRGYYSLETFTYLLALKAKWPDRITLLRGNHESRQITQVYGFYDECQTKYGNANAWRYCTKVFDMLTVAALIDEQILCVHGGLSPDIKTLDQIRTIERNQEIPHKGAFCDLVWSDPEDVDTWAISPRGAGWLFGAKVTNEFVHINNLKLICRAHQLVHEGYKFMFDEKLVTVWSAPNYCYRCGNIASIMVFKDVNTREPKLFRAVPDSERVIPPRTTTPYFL
Chain of PP6 holoenzyme (Q9UPN7 whole entry partner): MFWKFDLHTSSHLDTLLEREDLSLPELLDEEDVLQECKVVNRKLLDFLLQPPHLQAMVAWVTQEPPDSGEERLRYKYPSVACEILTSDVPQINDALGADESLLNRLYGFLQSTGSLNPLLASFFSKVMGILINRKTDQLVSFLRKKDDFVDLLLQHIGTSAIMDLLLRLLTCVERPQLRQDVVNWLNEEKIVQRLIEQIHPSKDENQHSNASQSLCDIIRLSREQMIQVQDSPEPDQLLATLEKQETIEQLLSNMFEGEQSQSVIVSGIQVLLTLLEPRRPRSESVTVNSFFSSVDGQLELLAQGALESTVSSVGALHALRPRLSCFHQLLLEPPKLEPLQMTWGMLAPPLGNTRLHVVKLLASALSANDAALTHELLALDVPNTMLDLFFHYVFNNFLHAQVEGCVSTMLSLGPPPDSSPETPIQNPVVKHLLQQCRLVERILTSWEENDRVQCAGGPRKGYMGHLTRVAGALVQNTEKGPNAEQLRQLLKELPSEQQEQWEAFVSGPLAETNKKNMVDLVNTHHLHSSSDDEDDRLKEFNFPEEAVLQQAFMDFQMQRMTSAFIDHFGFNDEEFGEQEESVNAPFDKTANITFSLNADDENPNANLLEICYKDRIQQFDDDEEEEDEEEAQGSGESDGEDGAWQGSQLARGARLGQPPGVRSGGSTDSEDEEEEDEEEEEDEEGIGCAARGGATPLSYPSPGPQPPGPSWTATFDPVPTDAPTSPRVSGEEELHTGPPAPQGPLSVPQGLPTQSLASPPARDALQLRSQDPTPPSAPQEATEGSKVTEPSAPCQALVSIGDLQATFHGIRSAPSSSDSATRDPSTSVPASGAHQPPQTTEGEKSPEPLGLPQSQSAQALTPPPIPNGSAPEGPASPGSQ
Chain of PP6 holoenzyme (O15084 whole entry partner): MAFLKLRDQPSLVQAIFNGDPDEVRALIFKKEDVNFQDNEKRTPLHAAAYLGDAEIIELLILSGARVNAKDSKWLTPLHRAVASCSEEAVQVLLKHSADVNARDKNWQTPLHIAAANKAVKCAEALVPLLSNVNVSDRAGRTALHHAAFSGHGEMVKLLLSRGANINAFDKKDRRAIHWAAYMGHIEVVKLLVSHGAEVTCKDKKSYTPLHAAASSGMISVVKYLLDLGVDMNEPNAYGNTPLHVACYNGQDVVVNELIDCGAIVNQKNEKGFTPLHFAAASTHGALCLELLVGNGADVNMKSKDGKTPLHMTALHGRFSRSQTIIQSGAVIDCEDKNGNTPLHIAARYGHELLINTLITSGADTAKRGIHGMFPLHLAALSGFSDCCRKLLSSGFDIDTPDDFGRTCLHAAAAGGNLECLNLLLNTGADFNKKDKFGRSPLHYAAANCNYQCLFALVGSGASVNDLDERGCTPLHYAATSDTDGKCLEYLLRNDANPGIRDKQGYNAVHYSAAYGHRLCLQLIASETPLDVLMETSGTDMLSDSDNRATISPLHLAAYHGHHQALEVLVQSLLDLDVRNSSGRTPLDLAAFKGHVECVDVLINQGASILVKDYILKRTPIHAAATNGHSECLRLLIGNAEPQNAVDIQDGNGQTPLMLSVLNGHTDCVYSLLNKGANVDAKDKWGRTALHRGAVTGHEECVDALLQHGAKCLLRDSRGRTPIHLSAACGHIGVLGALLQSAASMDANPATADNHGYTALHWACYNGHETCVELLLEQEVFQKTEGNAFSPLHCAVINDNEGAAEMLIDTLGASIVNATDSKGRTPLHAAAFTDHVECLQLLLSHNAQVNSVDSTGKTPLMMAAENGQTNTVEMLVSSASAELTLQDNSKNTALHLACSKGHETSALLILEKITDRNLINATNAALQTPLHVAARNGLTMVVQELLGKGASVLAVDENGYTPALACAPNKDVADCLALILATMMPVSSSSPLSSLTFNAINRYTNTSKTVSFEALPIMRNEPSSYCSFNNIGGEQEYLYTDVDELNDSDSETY

Chain of PP4 holoenzyme (P60510 2-307): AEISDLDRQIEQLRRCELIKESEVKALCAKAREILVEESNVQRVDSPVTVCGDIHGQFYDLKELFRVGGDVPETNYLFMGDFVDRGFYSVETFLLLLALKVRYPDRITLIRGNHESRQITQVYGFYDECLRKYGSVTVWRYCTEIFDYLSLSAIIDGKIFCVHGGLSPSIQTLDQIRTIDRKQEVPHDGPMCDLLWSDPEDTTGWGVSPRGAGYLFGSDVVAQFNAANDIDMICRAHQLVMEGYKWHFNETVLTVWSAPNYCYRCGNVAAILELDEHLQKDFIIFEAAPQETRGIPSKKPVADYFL
Chain of PP4 holoenzyme (Q9NY27 whole entry partner): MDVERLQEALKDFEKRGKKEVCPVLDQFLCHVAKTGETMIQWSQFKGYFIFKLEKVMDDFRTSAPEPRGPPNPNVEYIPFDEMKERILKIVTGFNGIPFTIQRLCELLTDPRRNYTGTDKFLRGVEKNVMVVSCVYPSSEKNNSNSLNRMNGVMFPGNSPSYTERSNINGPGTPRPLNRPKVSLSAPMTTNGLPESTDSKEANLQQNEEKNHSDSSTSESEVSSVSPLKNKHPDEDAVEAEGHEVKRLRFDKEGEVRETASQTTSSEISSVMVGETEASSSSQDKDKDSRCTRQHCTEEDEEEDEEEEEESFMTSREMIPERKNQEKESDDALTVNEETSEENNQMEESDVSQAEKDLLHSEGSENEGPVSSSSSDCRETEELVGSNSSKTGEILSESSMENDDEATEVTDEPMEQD
Chain of PP4 holoenzyme (Q6IN85 whole entry partner): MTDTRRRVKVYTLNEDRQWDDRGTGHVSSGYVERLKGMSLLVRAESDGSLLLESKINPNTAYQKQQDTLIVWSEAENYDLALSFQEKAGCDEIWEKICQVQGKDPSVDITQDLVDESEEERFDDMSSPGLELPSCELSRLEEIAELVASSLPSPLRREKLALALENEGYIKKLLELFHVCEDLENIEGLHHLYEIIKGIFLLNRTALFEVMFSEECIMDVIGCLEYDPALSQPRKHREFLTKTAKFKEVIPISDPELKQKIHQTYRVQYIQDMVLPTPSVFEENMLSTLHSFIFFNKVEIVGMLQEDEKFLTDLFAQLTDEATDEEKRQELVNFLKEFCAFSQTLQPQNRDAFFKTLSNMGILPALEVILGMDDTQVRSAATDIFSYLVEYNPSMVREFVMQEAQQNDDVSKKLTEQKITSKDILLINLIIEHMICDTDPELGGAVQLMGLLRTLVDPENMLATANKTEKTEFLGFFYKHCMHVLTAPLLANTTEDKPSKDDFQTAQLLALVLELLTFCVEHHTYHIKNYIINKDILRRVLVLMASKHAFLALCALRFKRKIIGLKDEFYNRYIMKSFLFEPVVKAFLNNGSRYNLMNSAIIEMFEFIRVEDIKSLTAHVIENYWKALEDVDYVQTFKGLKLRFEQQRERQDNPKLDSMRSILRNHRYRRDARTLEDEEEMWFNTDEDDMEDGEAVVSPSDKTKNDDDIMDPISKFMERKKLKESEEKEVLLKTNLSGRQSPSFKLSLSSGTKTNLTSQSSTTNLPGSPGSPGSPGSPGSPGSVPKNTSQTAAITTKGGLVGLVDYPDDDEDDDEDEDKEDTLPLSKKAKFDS

In the case of `Cc1cc(=O)oc2c(F)c(OP(=O)(O)O)c(F)cc12` [DiFMUP], the fluorescence dephosphorylation assay [1] is reported as “mixing purified PP4 and PP6 holoenzymes” and the fluorescence dephosphorylation assay [2] is reported as “DiFMUP dephosphorylation assay measuring the activity of purified PP6 holoenzyme”.

From publication PMC11844454 (bioRxiv, 2025)
